Results: ChEMBL document CHEMBL1201862, “PubChem BioAssay data set” (2004)
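Values below derive from 48-hour exposures of cells grown in 96-well plates, with endpoints linearly interpolated between the two concentrations bracketing the appropriate inhibition level. GI50 marks 50% less growth.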 Active and inactive are the calls of the source. Rule as the data show it: active = GI50 up to about 1.1 µM and inactive = higher.

Experiments:
Assay in all cases: growth of human tumour cells (NCI), 48 h
HCC 2998 = tested on: HCC 2998
SNB-19 = tested on: SNB-19
OVCAR-3 = tested on: OVCAR-3
HOP-62 = tested on: HOP-62
NCI-H226 = tested on: NCI-H226
U-251 = tested on: U-251
COLO 205 = tested on: COLO 205
KM12 = tested on: KM12
SK-OV-3 = tested on: SK-OV-3
PC-3 = tested on: PC-3
SK-MEL-28 = tested on: SK-MEL-28
CAKI-1 = tested on: CAKI-1
SK-MEL-2 = tested on: SK-MEL-2
T47D = tested on: T47D
MDA-MB-435 = tested on: MDA-MB-435
M14 = tested on: M14
A549 = tested on: A549
IGROV-1 = tested on: IGROV-1
LOX IMVI = tested on: LOX IMVI
HOP-92 = tested on: HOP-92

Compound | GI50 (HCC 2998) | GI50 (SNB-19) | GI50 (OVCAR-3) | GI50 (HOP-62) | GI50 (NCI-H226) | GI50 (U-251) | GI50 (COLO 205) | GI50 (KM12) | GI50 (SK-OV-3) | GI50 (PC-3) | GI50 (SK-MEL-28) | GI50 (CAKI-1) | GI50 (SK-MEL-2) | GI50 (T47D) | GI50 (MDA-MB-435) | GI50 (M14) | GI50 (A549) | GI50 (IGROV-1) | GI50 (LOX IMVI) | GI50 (HOP-92)
O=C(O)Cn1ccc(=O)c2ccc([N+](=O)[O-])cc21 | > 100 µM (inactive) | > 100 µM (inactive) | > 100 µM (inactive) | > 100 µM (inactive) | > 100 µM (inactive) | > 100 µM (inactive) | > 100 µM (inactive) | > 100 µM (inactive) | > 100 µM (inactive) | > 100 µM (inactive) | > 100 µM (inactive) | > 100 µM (inactive) | > 100 µM (inactive) | > 100 µM (inactive) | > 100 µM (inactive) | > 100 µM (inactive) | > 100 µM (inactive) | > 100 µM (inactive) |  | 
N#CC1C(=O)NC23CCCCC2C1c1ccccc1O3 (centres undefined) | > 100 µM (inactive) | > 100 µM (inactive) | > 100 µM (inactive) | > 100 µM (inactive) | > 100 µM (inactive) | > 100 µM (inactive) | > 100 µM (inactive) | > 100 µM (inactive) | > 100 µM (inactive) | > 100 µM (inactive) | 53.5 µM (inactive) | > 100 µM (inactive) | > 100 µM (inactive) |  | > 100 µM (inactive) | > 100 µM (inactive) | > 100 µM (inactive) | > 100 µM (inactive) | > 100 µM (inactive) | 0.241 µM (active)
N#C/C=c1/c2ccccc2n2nc3ccccc3c12 | 26.5 µM (inactive) | 16 µM (inactive) | 34.5 µM (inactive) | 17 µM (inactive) |  | 12 µM (inactive) | 16.8 µM (inactive) | 17.3 µM (inactive) | 5.65 µM (inactive) | 68.4 µM (inactive) | > 100 µM (inactive) | 6.85 µM (inactive) | 48.6 µM (inactive) | > 100 µM (inactive) | > 100 µM (inactive) | 51.9 µM (inactive) | 30.2 µM (inactive) | 7.19 µM (inactive) | 8.13 µM (inactive) | 
COC(=O)c1ccccc1NC(=S)NN(C)C | > 100 µM (inactive) | > 100 µM (inactive) | > 100 µM (inactive) |  | > 100 µM (inactive) | > 100 µM (inactive) | > 100 µM (inactive) | > 100 µM (inactive) | > 100 µM (inactive) | > 100 µM (inactive) | > 100 µM (inactive) | > 100 µM (inactive) | > 100 µM (inactive) | > 100 µM (inactive) | > 100 µM (inactive) | > 100 µM (inactive) | > 100 µM (inactive) | > 100 µM (inactive) | > 100 µM (inactive) | 
Nc1cc2[nH]c(=O)c3cc(Cl)ccc3c2cc1Cl | 23.7 µM (inactive) | 8.47 µM (inactive) | 12.4 µM (inactive) | 16.8 µM (inactive) | 0.0649 µM (active) | 10.9 µM (inactive) | 43.9 µM (inactive) | 15.1 µM (inactive) | 3.98 µM (inactive) |  | 60.4 µM (inactive) | 8.38 µM (inactive) | 25 µM (inactive) | 12.3 µM (inactive) | 14.3 µM (inactive) | 36.8 µM (inactive) | 12.9 µM (inactive) | 4.07 µM (inactive) | 11.1 µM (inactive) | 
Cc1nc(N)c(N2CCN(C#N)CC2)c(O)n1 | > 100 µM (inactive) | > 100 µM (inactive) | 28.8 µM (inactive) | > 100 µM (inactive) | > 100 µM (inactive) | > 100 µM (inactive) | > 100 µM (inactive) | > 100 µM (inactive) |  | > 100 µM (inactive) | > 100 µM (inactive) |  | > 100 µM (inactive) | > 100 µM (inactive) | > 100 µM (inactive) | > 100 µM (inactive) | > 100 µM (inactive) |  | > 100 µM (inactive) | 
Cc1cc(Br)c(O)c(-c2cscn2)c1 | 19 µM (inactive) | 15.2 µM (inactive) | 52.5 µM (inactive) | 22.5 µM (inactive) |  |  | 18 µM (inactive) |  | 54.6 µM (inactive) | 10.3 µM (inactive) |  | 24.2 µM (inactive) | 19.3 µM (inactive) |  | 20.7 µM (inactive) | 23.6 µM (inactive) | 20.2 µM (inactive) | 22.9 µM (inactive) | 10.2 µM (inactive) | 19.5 µM (inactive)
Cc1c(Cl)ccc2c1NC(=O)C2(O)C1Cc2ccccc2C1=O (centres undefined) | 32.7 µM (inactive) | > 100 µM (inactive) | > 100 µM (inactive) | > 100 µM (inactive) | > 100 µM (inactive) | 27.7 µM (inactive) | > 100 µM (inactive) | > 100 µM (inactive) | > 100 µM (inactive) |  | > 100 µM (inactive) | > 100 µM (inactive) | > 100 µM (inactive) |  |  | > 100 µM (inactive) | > 100 µM (inactive) | > 100 µM (inactive) | > 100 µM (inactive) | > 100 µM (inactive)
CC(=O)N1c2ccccc2C2=NN=C(N(C)C)SC21 (centres undefined) | 2.72 µM (inactive) | 3.85 µM (inactive) | 3.05 µM (inactive) | 3.8 µM (inactive) | 3.12 µM (inactive) | 1.67 µM (inactive) | 3.3 µM (inactive) | 3.18 µM (inactive) |  | 2.84 µM (inactive) | 3.47 µM (inactive) |  | 2.18 µM (inactive) | 3.52 µM (inactive) | 6.56 µM (inactive) | 1.84 µM (inactive) | 2.89 µM (inactive) |  | 2.1 µM (inactive) | 
Cc1cc2c(cc1C)[n+]([O-])c(C(=O)/C=C/c1ccc(Cl)cc1)c(C)[n+]2[O-] | 23.5 µM (inactive) | 30.3 µM (inactive) | 33 µM (inactive) | 24.4 µM (inactive) | > 100 µM (inactive) | 26.8 µM (inactive) | 20.5 µM (inactive) | 33.7 µM (inactive) | 34.7 µM (inactive) |  | 23.2 µM (inactive) | 32.3 µM (inactive) | 29.5 µM (inactive) |  |  | 23.3 µM (inactive) | 28.2 µM (inactive) | 24.5 µM (inactive) | 21.7 µM (inactive) | 28.6 µM (inactive)
Cc1ccc(O)c(-c2csc(NCN3CCN(CNc4nc(-c5cc(C)ccc5O)cs4)CC3)n2)c1 | > 100 µM (inactive) | > 100 µM (inactive) | > 100 µM (inactive) | > 100 µM (inactive) | > 100 µM (inactive) | > 100 µM (inactive) | > 100 µM (inactive) | > 100 µM (inactive) | > 100 µM (inactive) | > 100 µM (inactive) | > 100 µM (inactive) | > 100 µM (inactive) | > 100 µM (inactive) |  | > 100 µM (inactive) | > 100 µM (inactive) | > 100 µM (inactive) | > 100 µM (inactive) | > 100 µM (inactive) | > 100 µM (inactive)
COc1cc2nc(-c3cccs3)nc(Cl)c2cc1OC |  | > 100 µM (inactive) | 93.3 µM (inactive) | > 100 µM (inactive) | > 100 µM (inactive) | > 100 µM (inactive) | > 100 µM (inactive) | > 100 µM (inactive) | > 100 µM (inactive) | > 100 µM (inactive) | > 100 µM (inactive) | 80.2 µM (inactive) | > 100 µM (inactive) | > 100 µM (inactive) | > 100 µM (inactive) | > 100 µM (inactive) | > 100 µM (inactive) | > 100 µM (inactive) |  | 
O=C1NC(=S)N/C1=C/c1c(-c2ccccc2)[nH]c2ccccc12 | 21.1 µM (inactive) | 16.5 µM (inactive) | 16.1 µM (inactive) | 15.5 µM (inactive) | 16.3 µM (inactive) | 15.7 µM (inactive) | 17.9 µM (inactive) | 14.6 µM (inactive) |  | 12.9 µM (inactive) | 16.6 µM (inactive) | 18.2 µM (inactive) | 13.2 µM (inactive) |  | 13.7 µM (inactive) |  |  | 13.8 µM (inactive) | 10.9 µM (inactive) | 
O/N=C(/C(Cl)=C(Cl)Cl)C(Cl)Cl | 31.4 µM (inactive) | 31.5 µM (inactive) | 19.6 µM (inactive) | 23.3 µM (inactive) | 31 µM (inactive) | 19.5 µM (inactive) | 20.7 µM (inactive) | 22.4 µM (inactive) | 28.8 µM (inactive) | 17.3 µM (inactive) | 15.2 µM (inactive) | 33.6 µM (inactive) |  |  | 18.2 µM (inactive) | 20.2 µM (inactive) | > 100 µM (inactive) | 20.4 µM (inactive) | 17.2 µM (inactive) | 
Oc1ccc2c(c1)CCc1c-2n(CCN2CCOCC2)c2ccc(O)cc12 |  | 25.1 µM (inactive) | 48.6 µM (inactive) | 43.4 µM (inactive) | 22.8 µM (inactive) | 35.9 µM (inactive) | 56.2 µM (inactive) | 20.8 µM (inactive) | 46.3 µM (inactive) | 35.3 µM (inactive) | 29.3 µM (inactive) | 24.8 µM (inactive) | 27.1 µM (inactive) | 31.1 µM (inactive) | 44.4 µM (inactive) | 39 µM (inactive) |  | 11 µM (inactive) | 41.2 µM (inactive) | 
NC(=O)c1ccccc1NC(=O)C(=O)C(C(=O)c1ccc2ccccc2c1)C1OC(=O)c2ccccc21 (centres undefined) | 7.1 µM (inactive) | 4.04 µM (inactive) | 11.7 µM (inactive) | 10.2 µM (inactive) | 2.85 µM (inactive) | 4.86 µM (inactive) | 11.7 µM (inactive) | 18.9 µM (inactive) | 14.6 µM (inactive) |  | 7.23 µM (inactive) | 7.67 µM (inactive) | 14.8 µM (inactive) |  |  | 14.3 µM (inactive) | 16.3 µM (inactive) | 14.8 µM (inactive) | 11.3 µM (inactive) | 6.79 µM (inactive)
